According to patent publication US20090099174A1, “COMBINATION 059” (ASTRAZENECA AB, priority 2007, published 2009):

Legend:
[1] = system: A2058 cell line; assay: 96-hour MTS viable cell number assay, A2058 cell line (monotherapy and concurrent combination); format: cell-based; conditions: Homo sapiens, 96-hour viable cell number endpoint by MTS, read-out: IC50 monotherapy (Geomean)
Source text: The objective of this assay was to determine the in-vitro combination interaction when combining AZD6244 or 2-(2-fluoro-4-iodophenylamino)-N-(2-hydroxyethoxy)-1,5-dimethyl-6-oxo-1,6-dihydropyridine-3-carboxamide concurrently with Compound A or Rapamycin in the A2058, NCI-H727, Calu-6, NCI-H2291, NCI-H23, A549 and NCI-H460 cell lines using a 96-hour viable cell number endpoint (MTS).
The A2058 cell line was routinely cultured and assayed in DMEM (phenol red free)+10% Foetal Calf Serum (FCS)+1% glutamine. The A2058 cell line is wild type for HRAS, KRAS and NRAS and mutant for the BRAF V600E mutation.
MTS viable cell number assays were carried out to determine seeding densities required for 96 hours of exponential growth. Cells were seeded into 96-well plates at their pre-determined seeding density allowing for log phase growth. After 4-hours cells were dosed with monotherapy AZD6244, 2-(2-fluoro-4-iodophenylamino)-N-(2-hydroxyethoxy)-1,5-dimethyl-6-oxo-1,6-dihydropyridine-3-carboxamide, Compound A, or Rapamycin using the Hydra/ECHO 550 platform. Following incubation with compound for 96-hours viable cell number was determined using an MTS viable cell number (Promega™) endpoint.
Concurrent combination: Cells were seeded into 96-well plates at the above-determined seeding density allowing for log phase growth. After 4 hours cells were dosed concurrently with
Non-linear MEA (Median Effect Analysis): The combination interaction between 2 active agents, each with well defined IC50 monotherapy dose responses was assessed using equal inhibitory effect ratios of the two agents (IC60, IC50, IC40, IC30, IC20, IC10). A combination index (CI)<0.85 indicates a synergistic interaction, CI 0.85-1.2 additivity and a CI>1.2 antagonism.
That is a fixed dose of the partially active agent (in MTS assays) was applied across the full dose response of the active agent. Relative potency is defined as the ratio of the combination IC50 to the monotherapy IC50.

[2] = system: Calu-6 xenografts; assay: Calu-6 tumour xenograft growth in nude mice; format: in vivo
Experimental: (§1) LoVo cells were grown in DMEM (Gibco) 10% FCS 1% Glutamine medium and HCT116 cells were grown in McCoys 5A 10% FCS 1% Glutamine, A549a and CaLu-6 cells were grown in RPMI1640 10% FCS 1% Glutamine. […] cells were implanted into the flank of nude mice (LoVo no matrigel, HCT-116, Calu-6 and A549a plus 50% matrigel).
(§2) When mean tumour size reached approximately 0.2 cm^3, the mice were randomized into control and treatment groups. The treatment groups received either 25 or 50 mg/kg AZD6244 (vehicle: HPMC/Tween milled overnight), or 20 mg/kg Compound A (vehicle 10% DMSO, 90% propylene glycol) by oral gavage, Rapamycin was given 4 mg/kg once weekly (10% DMSO-10% Cremaphor-10% Ethanol-70% water for injection. When administered in combination, Compound A was given 2 hours after the oral dose of the other compound. The control group received vehicle (10% DMSO 90% propylene glycol) alone, once daily by oral gavage.
(§3) Tumour volumes (measured by caliper), animal body weight and tumour condition were recorded twice weekly for the duration of the study. Mice were sacrificed by CO2 euthanasia. The tumour volume was calculated (taking length to be the longest diameter across the tumour and width to be the corresponding perpendicular diameter using the formula: (length×width)×√(length×width)×(π/6). Growth inhibition from the start of treatment was assessed by comparison of the differences in tumour volume between control and treated groups. Because the variance in mean tumour volume data increases proportionally with volume (and is therefore disproportionate between groups), data were log-transformed to remove any size dependency before statistical evaluation.
(§4) Statistical significance was evaluated using a one-tailed, two-sample t test. To analyze the data from the combination study, the statistical tool SigmaStat has been used. A two-way ANOVA test was performed using the factors concentration of drug A and concentration of drug B. The data analyzed was Log (final tumour volume)-Log (initial tumour volume) calculated for each individual group at the end of the study. […]

[3] = system: HCT-116 xenografts; assay: HCT-116 tumour xenograft growth in nude mice; format: in vivo
Experimental: as §1
When mean tumour size reached approximately 0.2 cm^3, the mice were randomized into control and treatment groups. […]
as §3, with “Mice were sacrificed by CO2 euthanasia.” left out
Statistical significance was evaluated using a one-tailed, two-sample t test. […]

[4] = system: A549 cell line; assay: 96-hour MTS viable cell number assay, A549 cell line (monotherapy and combination); conditions: for IC50: Homo sapiens, A549, 96 h, read-out: IC50 monotherapy (Geomean)
Experimental: (§5) The NCI-H727, Calu-6, NCI-H2291, NCI-H23, A549 and NCI-H460 cell lines were routinely cultured and assayed in RPMI (phenol red free)+10% Foetal Calf Serum (FCS)+1% glutamine.
(§6) MTS viable cell number assays were carried out to determine seeding densities required for 96 hours of exponential growth. Cells were seeded into 96-well plates at their pre-determined seeding density allowing for log phase growth. […] Following incubation with compound for 96-hours viable cell number was determined using an MTS viable cell number (Promega™) endpoint.

[5] = system: NCI-H727 cell line; assay: 96-hour MTS viable cell number assay, NCI-H727 cell line (monotherapy and combination); conditions: Homo sapiens, NCI-H727, 96 h, read-out: IC50 monotherapy (Geomean)
Experimental: as §5, §6

[6] = system: pERK 1/2(Thr202/Tyr204); assay: pharmacodynamic effect of AZD6244 against pERK 1/2; format: cell-based
[7] = system: Calu-6 cell line; assay: 96-hour MTS viable cell number assay, Calu-6 cell line (monotherapy and combination); conditions: Homo sapiens, Calu-6, 96 h, read-out: IC50 monotherapy (Geomean)
Experimental: as §5, §6

[8] = system: LoVo xenografts; assay: LoVo tumour xenograft growth in nude mice; format: in vivo
Experimental: as §1, §2, §3
Statistical significance was evaluated using a one-tailed, two-sample t test. To analyze the data from the combination study, the statistical tool SigmaStat has been used. A two-way ANOVA test was performed using the factors concentration of drug A and concentration of drug B. The data analyzed was Log (final tumour volume)-Log (initial tumour volume) calculated for each individual group at the end of the study. This tool is used to assess whether there is a main effect of drug A, a main effect of drug B plus a significant interaction between the two compounds A and B (eg. one compound influences the effect of the other compound) which may be interpreted as antagonism, additivity or synergism.

[9] = system: NCI-H2291 cell line; assay: 96-hour MTS viable cell number assay, NCI-H2291 cell line (monotherapy and combination); conditions: for IC50: Homo sapiens, NCI-H2291, 96 h, read-out: IC50 monotherapy (Geomean)
Experimental: as §5, §6

[10] = system: NCI-H23 cell line; assay: 96-hour MTS viable cell number assay, NCI-H23 cell line (monotherapy and combination); conditions: for IC50: Homo sapiens, NCI-H23, 96 h, read-out: IC50 monotherapy (Geomean)
Experimental: as §5, §6

[11] = system: NCI-H460 cell line; assay: 96-hour MTS viable cell number assay, NCI-H460 cell line (monotherapy and combination); conditions: for IC50: Homo sapiens, NCI-H460, 96 h, read-out: IC50 monotherapy (Geomean)
Experimental: as §5, §6

[12] = system: A549a xenografts; assay: A549a tumour xenograft growth in nude mice; format: in vivo
Experimental: as §1, §2, §3, §4

[13] = 20 mg/kg Compound A, oral gavage

IC50 [4]	IC50 [5]	IC50 [7]	IC50 [9]	IC50 [10]	IC50 [11]	SMILES	IC50 [1]	also measured
–	–	–	–	–	–	Cc1cc(C(=O)NOCCO)c(Nc2ccc(I)cc2F)n(C)c1=O [2-(2-fluoro-4-iodophenylamino)-N-(2-hydroxyethoxy)-1,5-dimethyl-6-oxo-1,6-dihydropyridine-3-carboxamide]	25 nM	–
12400 nM	36 nM	257 nM	704 nM	1840 nM	32400 nM	Cn1cnc2c(F)c(Nc3ccc(Br)cc3Cl)c(C(=O)NOCCO)cc21 [AZD6244]	526 nM	reduction in geometric mean delta tumour volume compared with the vehicle treated control ([2]; 50 mg/kg once daily AZD6244): 93.2%; reduction in geometric mean delta tumour volume compared with the vehicle control ([3]; 25 mg/kg AZD6244, oral gavage): 59%; ED90, pharmacodynamic effect against pERK 1/2(Thr202/Tyr204) [6]: 333 nM; ED95, pharmacodynamic effect against pERK 1/2(Thr202/Tyr204) [6]: 1000 nM; EC50 ([6]; read-out: ED50, pharmacodynamic effect against pERK 1/2(Thr202/Tyr204)): 20 nM; reduction in geometric mean delta tumour volume compared with the vehicle treated control ([8]; 25 mg/kg twice daily AZD6244): 38.7%; reduction in geometric mean delta tumour volume compared with the vehicle control ([8]; 50 mg/kg AZD6244, oral gavage): 43%; reduction in geometric mean delta tumour volume compared with the vehicle treated control ([12]; 25 mg/kg once daily AZD6244): 53.4%
37 nM	68 nM	50 nM	23 nM	30 nM	26 nM	COc1ccc(-c2ccc3c(N4CCOC[C@@H]4C)nc(N4CCOC[C@@H]4C)nc3n2)cc1CO [Compound A, [5-[2,4-bis[(3S)-3-methylmorpholin-4-yl]pyrido[5,6-e]pyrimidin-7-yl]-2-methoxyphenyl]methanol]	46 nM	reduction in geometric mean delta tumour volume compared with the vehicle treated control ([2]; 20 mg/kg once daily Compound A): 44.9%; reduction in geometric mean delta tumour volume compared with the vehicle control [3, 13]: 24%; reduction in geometric mean delta tumour volume compared with the vehicle control [8, 13]: 66%; reduction in geometric mean delta tumour volume compared with the vehicle treated control ([12]; 20 mg/kg once daily Compound A): 94.1%
> 10000 nM	> 10000 nM	> 10000 nM	> 10000 nM	> 10000 nM	> 10000 nM	CO[C@H]1C[C@@H]2CC[C@@H](C)[C@@](O)(O2)C(=O)C(=O)N2CCCC[C@H]2C(=O)O[C@H]([C@H](C)C[C@@H]2CC[C@@H](O)[C@H](OC)C2)CC(=O)[C@H](C)/C=C(\C)[C@@H](O)[C@@H](OC)C(=O)[C@H](C)C[C@H](C)/C=C/C=C/C=C/1C [Rapamycin]	> 10000 nM	reduction in geometric mean delta tumour volume compared with the vehicle treated control ([2]; 4 mg/kg once weekly Rapamycin): 37.2%; growth inhibitory effect reached ([4]; A549, regardless of the presence of AZD6244): < 50%; reduction in geometric mean delta tumour volume compared with the vehicle treated control ([8]; 4 mg/kg Rapamycin): 38.2%; growth inhibitory effect reached ([9]; NCI-H2291, regardless of the presence of AZD6244): < 50%; growth inhibitory effect reached ([10]; NCI-H23, regardless of the presence of AZD6244): < 50%; growth inhibitory effect reached ([11]; NCI-H460, regardless of the presence of AZD6244): < 50%; reduction in geometric mean delta tumour volume compared with the vehicle treated control ([12]; 4 mg/kg once weekly Rapamycin): 69.5%
